Measured values as given in ChEMBL document CHEMBL2448809, “UCSF DeRisi Lab MMV Box Apicoplast Screening”.

What follows are compounds tested on Plasmodium falciparum (assay: MMV: Compounds (1uM) were screened in a 72hr growth assay monitored by flow cytometry both in the presence and absence of supplemental isopentenyl pyrophosphate (IPP) 200uM. Compounds which fail to show anti-malarial activity when chemically rescued by IPP are therefore specific to the apicoplast. The values are expressed as the ratio of the corresponding activity with and without IPP, respectively.).
Type: functional, W2

Structure (SMILES) | Ratio
CCOc1cc(CNC(C)C(O)c2ccccc2)cc(Cl)c1OCC (stereo not drawn) | 0.8833
Cc1cc(NC(=O)c2cccc(C(F)(F)F)c2)n(-c2nc(-c3ccc4c(c3)OCO4)cs2)n1 | 0.8908
COc1cccc(C2(C)Nc3ccccc3-c3nc4ccccc4n32)c1 (stereo not drawn) | 1.163
CC(C)CNC(=O)c1c(N)n(CCc2ccccc2F)c2nc3ccccc3nc12 | 0.63
Cc1cccc(-n2ncc3c(O)nc(-n4nc(C)cc4NC(=O)c4cc5ccccc5o4)nc32)c1 | 0.6055
O=C(Nc1ccccc1O)c1ccc(Oc2cccc(C(=O)Nc3ccccc3O)c2)cc1 | 0.75
Oc1ccccc1CN1CCC2(CCCN(Cc3ccccc3F)C2)C1 (stereo not drawn) | 0.9661
Cl.N=c1n(CCN2CCCCC2)c2ccccc2n1CC(O)c1cccc(Br)c1 (stereo not drawn) | 0.8955
COc1cccc(O)c1CN1CCC2(CCCN(Cc3ccc(F)cc3)C2)C1 (stereo not drawn) | 0.8333
COc1cccc(Nc2nc(NCCO)c3ccccc3n2)c1.Cl | 0.7297
Cc1ccc(-c2cc(C(=O)Nc3ccc(S(=O)(=O)N4CCCCC4)cc3)[nH]n2)c(O)c1 | 0.875
COc1ccc(C(=O)Nc2ccc3nc(N4CCCCC4)cc(C)c3c2)cc1OC | 0.7897
COCCNCC(O)Cn1c2ccc(Cl)cc2c2cc(Cl)ccc21 (stereo not drawn) | 0.88
COc1ccc(N2CCN(C(CNC(=O)C3CCCCC3)c3ccc4c(c3)OCO4)CC2)cc1 (stereo not drawn) | 0.9206
FC(F)(F)c1ccc(Nc2nnnc3ccccc23)cc1 | 1.052
O=C(NC1CCN(Cc2ccccc2)CC1)c1cc(-c2ccncc2)nc2ccc(Cl)cc12 | 0.7749
COc1cc2cc(C(=O)Nc3ccccc3)c(N)nc2cc1OC | 1.031
COc1cccc(NC(=O)Cn2c(C)c(C#N)c3ccccc32)c1 | 1.098
Cn1c(=O)c2cc(C(=O)NCCCN3CCCCCC3)sc2c2ccccc21 | 1.205
Cc1[nH]c(-c2ccc(F)cc2)cc1C(=O)NC1CCN(Cc2ccccc2)CC1 | 0.8906
COc1ccc(CCN2CCC(CN(C)Cc3cnn(-c4ccccc4)c3)CC2)cc1 | 0.8571
O=C(NC(c1ccccc1)c1ccc2cccnc2c1O)c1ccccc1 (stereo not drawn) | 1.018
O=C(O)C(=O)O.Oc1ccccc1CN1CCN(C(c2ccccc2)c2ccccc2)CC1 | 1.068
O=C(NC1CCCC1)c1ccc(N2CCC(NCc3cccc(C(F)(F)F)c3)CC2)cc1 | 0.8
CCOc1cc(Br)c(C(C)NC(=O)c2cccc(OC)c2)cc1OCC (stereo not drawn) | 0.791
CC(C)=CCN1CCC(C(=O)Nc2ccc(-c3nc4ccccc4[nH]3)cc2)CC1 | 0.8533

Structure (SMILES) | Ratio
CCN(CC)CCn1c(=N)n(CC(O)c2ccc(Cl)c(Cl)c2)c2ccccc21.Cl (stereo not drawn) | 0.9508
CCOc1cc(Cl)c(C(C)NC(=O)c2cccc(OC)c2)cc1OCC (stereo not drawn) | 0.9259
FC(F)(F)c1cccc(Nc2nc(-c3ccccc3)nc3ncccc23)c1 | 0.7857
CCN1CCN(c2cc(C)c3cc(NC(=O)c4ccc(OC)c(OC)c4)ccc3n2)CC1 | 0.8308
CC(=O)Nc1nnc(SCc2c(C)cc(C(C)(C)C)cc2C)s1 | 0.8169
Cc1ccc(Cl)cc1N1CCN(CCCNC(=O)C2CCN(c3nc4ccccc4[nH]3)CC2)CC1 | 0.814
COc1ccc(CNC2CCN(c3ccc(NC(=O)c4cccc(Cl)c4)cc3)CC2)cc1OC | 1.145
Cc1ccc(CSCc2ccc(C(=O)NC3CC3)o2)cc1 | 0.8621
CC(NCc1ccccc1)c1cc(Cl)ccc1O (stereo not drawn) | 0.6957
CN1CCN(c2c3c(c(C#N)c4nc5ccccc5n24)CCC3)CC1 | 1.032
CCOc1ccc(C2N(C)c3ccccc3N2C)cc1 | 0.8372
O=C(Nc1ccc(CN2CCOCC2)cc1)c1ccc(-c2ccc(Br)cc2)o1 | 0.6519
CC(=O)NCCc1nc2ccccc2n1Cc1ccc(C(C)C)cc1 | 1.018
COc1nc(Nc2ccc(C(C)C)cc2)nc(OC)n1 | 0.9479
CCN(CC)CCNc1ncnc2c1[nH]c1ccc(Br)cc12 | 0.9508
CCOc1cccc(C(=O)Nc2ccc(-c3nc4ccccc4[nH]3)cc2)c1 | 1.322
CN(C)c1ccc(-c2nc3cc(N)ccc3[nH]2)cc1 | 1.036
Cl.Clc1cc(Br)ccc1-c1ccc(CNCC2CCNCC2)o1 | 1.173
Cc1c(C)n(Cc2ccc(F)cc2)c2ccc(C(=O)NCc3ccco3)cc12 | 1.212
CCN(CC)c1ccc(NC(=O)c2cccs2)cc1 | 1
CCCC(c1nnnn1C1CCCCC1)N1CCN(C(=O)c2ccco2)CC1.Cl (stereo not drawn) | 1.023
CC(C)(C)C(=O)Nc1ccc(C(=O)Nc2cccc(-c3nc4ccccc4[nH]3)c2)cc1 | 0.7684
COc1ccc(-c2nonc2NC(=O)c2cccc(C)c2)cc1OC | 1.066
COc1cccc(-c2nn(C)c3sc(C(=O)NCCN4CCN(c5ccccc5F)CC4)cc23)c1 | 0.7703
O=C(Nc1ccc(N2CCN(Cc3ccccc3)CC2)cc1)c1cccs1.O=C(O)C(F)(F)F | 0.8148
Cc1ccc(CN2CCC(C(=O)Nc3ccc(-c4cc5ccccc5[nH]4)cc3)CC2)o1 | 0.8636

Structure (SMILES) | Ratio
O=C(Nc1ccc(N2CCCCC2)c(Cl)c1)c1ccc(Br)o1 | 0.8784
Cc1cc(C)c2nc(N3CCC(C(=O)NCCCN4CCC(N5CCCCC5)CC4)CC3)sc2c1 | 0.8033
O=C(Nc1ccsc1C(=O)NC1CCCCC1)c1ccc(F)cc1 | 0.9369
O=C(Nc1cccc(C(F)(F)F)c1)c1cc(Cl)ccc1O | 0.9697
CC(C)(C)c1ccc(C(=O)Nc2nc3ccccc3s2)cc1 | 0.8302
CC1CC(C)CN(C(=O)c2ccc(Cl)cc2Cl)C1 (stereo not drawn) | 0.6364
COc1ccccc1CNC(=O)C1c2ccccc2C(=O)N(CC(C)C)C1c1cccs1 (stereo not drawn) | 1.038
OC(CNC1CCCC1)Cn1c2ccccc2c2ccccc21 (stereo not drawn) | 1.151
COc1ccc(C2N(C)c3ccccc3N2C)cc1 | 0.8737
CCN(CC)c1cc(C)c2cc(NC(=O)c3cccc(OC)c3)ccc2n1 | 1.095
CC(C)OCc1cc(CN2CCN(c3cccc(Cl)c3)CC2)c(O)c2ncccc12 | 1.015
O=C(Nc1ccc(F)c(Cl)c1)Nc1ccc(Cl)c(Cl)c1 | 1.268
CCOc1ccc(-c2nc(NC(=O)c3cccc(S(C)(=O)=O)c3)sc2C)cc1 | 0.4367
Clc1ccc2[nH]c3c(NCCCN4CCOCC4)ncnc3c2c1 | 0.9836
COc1ccccc1N1CCN(C(CNS(=O)(=O)c2ccc(Cl)cc2)c2cccnc2)CC1 (stereo not drawn) | 0.8506
CCCc1c(C)nc2ccccc2c1O | 0.9683
CCOc1c(Cl)cc(CNC(C)C(O)c2ccccc2)cc1OC (stereo not drawn) | 1.031
CCCN(CCC)CCCNC(=O)c1cc2c(-c3ccc(OC)c(OC)c3)nn(C)c2s1 | 1.186
Cc1cc(N2CCN(C3CCCC3)CC2)n2c(nc3ccccc32)c1C#N | 0.7364
CN1c2ccccc2N(C)C1c1ccc2c(c1)OCO2 | 0.7561
CCCCOc1ccc(C(=O)Nc2cc(C)on2)cc1 | 0.9875
O=C(NCC1Cc2cccc(-c3ccncc3)c2O1)c1csc2c1CCCC2 (stereo not drawn) | 0.6487
CCc1ccc(Nc2cc(C)nc3nc(C)nn23)cc1 | 0.9802
Br.CCN(CC)S(=O)(=O)c1ccc(-c2csc(Nc3ccc(C)c(C)c3)n2)cc1 | 0.8
C=C(C)CCC(C)N1CCC(N2CCC(C(=O)NCCc3ccccc3)CC2)CC1 (stereo not drawn) | 0.756
C=CCc1c(C)nc2ccccc2c1O | 0.9595
